Where a name gives a salt, the structure may show the parent alone.
| Structure (SMILES) | melting point |
| --- | --- |
| COc1cc(S[C@H](CCN)c2ccno2)c(Cl)cn1 (as salt: salt) [Example 15, γ-[(5-Chloro-2-methoxy-4-pyridinyl)thio]-(γ^5R)-5-isoxazolepropanamine (E)-butenedioate] | 142 to 143 °C |
| Cc1ccc(C#N)c(S[C@H](CCN)c2ccno2)n1 [Example 6, 2-[[(1R)-3-Amino-1-(5-isoxazolyl)propyl]thio-6-methyl-3-pyridinecarbonitrile Ethanedioate] | 165 to 167 °C |
| N#Cc1ccc(C(F)(F)F)nc1O[C@H](CCN)c1ccon1.O=C(O)/C=C/C(=O)O [Example 11, 2-[[(1R)-3-Amino-1-(3-isoxazolyl)propyl]oxy]-6-(trifluoromethyl)-3-pyridinecarbonitrile (E)-butenedioate] | 160 to 161 °C |
| Cl.N#Cc1ccc(C(F)(F)F)nc1O[C@H](CCN)c1nccs1 [Example 12, 2-[[(1R)-3-Amino-1-(2-thiazolyl)propyl]oxy]-6-(trifluoromethyl)-3-pyridinecarbonitrile Hydrochloride] | 151 to 153 °C |
| N#Cc1cnc(N)cc1S[C@H](CCN)c1ccno1.O=C(O)/C=C/C(=O)O [Example 14, 6-Amino-4-[[(1R)-3-amino-1-(5-isoxazolyl)propyl]thio]-3-pyridinecarbonitrile (E)-butenedioate] | 160 to 163 °C |
| COc1cc(S[C@H](CCN)c2ccno2)c(C#N)cn1.O=C(O)/C=C/C(=O)O [Example 16, 4-[[(1R)-3-Amino-1-(5-isoxazolyl)propyl]thio]-6-methoxy-3-pyridinecarbonitrile (E)-butenedioate] | 152 to 153 °C |
| N#Cc1ccc(C(F)(F)F)nc1O[C@H](CCN)c1cc(Cl)no1.O=C(O)/C=C/C(=O)O [Example 18, 2-[[(1R)-3-Amino-1-(3-chloro-5-isoxazolyl)propyl]oxy]-6-(trifluoromethyl)-3-pyridinecarbonitrile (E)-butenedioate] | 151 to 152 °C |
| Cc1ccc(C#N)c(S[C@H](CCN)c2cc(Cl)no2)n1.O=C(O)/C=C/C(=O)O [Example 19, 2-[[(1R)-3-Amino-1-(3-chloro-5-isoxazolyl)propyl]thio]-6-methyl-3-pyridinecarbonitrile (E)-butenedioate] | 186 to 187 °C |
| Cc1ccc(C#N)c(SC(CCN)c2ccns2)n1.O=C(O)C(=O)O (stereo not drawn) [Example 21, 2-[[3-Amino-1-(5-isothiazolyl)propyl]thio]-6-methyl-3-pyridinecarbonitrile Ethanedioate] | 103 to 104 °C |
| Cc1ccc(C#N)c(OC(CCN)c2ccns2)n1.O=C(O)C(=O)O (stereo not drawn) [Example 22, 2-[3-Amino-1-(5-isothiazolyl)propoxy]-6-methyl-3-pyridinecarbonitrile Ethanedioate] | 175 to 177 °C |
| Cc1cc([C@@H](CCN)Oc2nc(C(F)(F)F)ccc2C#N)no1 [Example 24, 2-[[(1R)-3-Amino-1-(5-methyl-3-isoxazolyl)propyl]oxy]-6-(trifluoromethyl)-3-peridinecarbonitrile Ethanedioate] | 163 to 165 °C |
| COc1cc(O[C@H](CCN)c2ccon2)c(C#N)cn1.O=C(O)C(=O)O [Example 25, 4-[[(1R)-3-Amino-1-(3-isoxazolyl)propyl]oxy]-6-methoxy-3-pyridinecarbonitrile Ethanedioate] | 173 to 174 °C |
| Cc1ccc(C#N)c(SC(CCN)c2nocc2C)n1.O=C(O)C(=O)O (stereo not drawn) [Example 26, 2-[[3-Amino-1-(4-methyl-3-isoxazolyl)propyl]thio]-6-methyl-3-pyridinecarbonitrile Ethanedioate] | 132 to 134 °C |
| Cc1cc(SC(CCN)c2scnc2Cl)c(C#N)cn1.O=C(O)/C=C/C(=O)O (stereo not drawn) [Example 28, 4-[[3-Amino-1-(4-chloro-5-thiazolyl)propyl]thio]-6-methyl-3-pyridinecarbonitrile (E)-butenedioate] | 180 to 181 °C |
| N#Cc1ccc(C(F)(F)F)nc1OC(CCCN)c1ccno1.O=C(O)/C=C/C(=O)O (stereo not drawn) [Example 42, 2-[4-Amino-1-(5-isoxazolyl)butoxy]-6-(trifluoromethyl)-3-pyridinecarbonitrile (E)-butenedioate] | 155 to 157 °C |

— patent US20040176422A1, “Heteroarylheteroalkylamine derivatives and their use as inhibitors of nitric oxide synthase” (priority 2001, published 2004)
